Laboratory results from patent US8883782B2, “Spiro-tetracyclic ring compounds as beta-secretase modulators and methods of use” (Amgen Inc., priority 2010, dated 2014).
Like-named read-outs stand apart in the source and are kept apart here.

Columns and labels:
[1] = target: Beta Secretase enzyme (BACE) (Homo sapiens, UniProt P56817); test: In vitro enzymatic BACE FRET (fluorescence resonance energy transfer) assay; type: biochemical; conditions: average IC50, enzyme assay; read-out: BACE 1 FRET assay
Procedure, shortened: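 Enzyme activity was measured at pH 4.2 (0.05 M acetate, 10% DMSO final, 100 uM genapol) by cleavage of a 50 nM quenched fluorogenic peptide. After one hour, Tris was added to neutralise the pH and fluorescence was recorded.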

[2] = tested on: Aβ40 in conditioned medium of cells stably expressing Amyloid Precursor Protein (APP); test: In vitro BACE cell-based assay (Aβ40 in conditioned medium, sandwich ELISA); conditions: read-out: HEK cell assay
Procedure, shortened: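 The sandwich ELISA pairs pAb40 capture (3 h, 4 °C) with 6E10 detection (2 h, 4 °C) and a streptavidin-europium TRF read-out. Supernatants come from APP-expressing cells grown in 10% FBS DMEM.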

[3] = Homo sapiens, HEK293, average IC50, HEK cells
[4] = Homo sapiens, HEK293, average IC50

Chain of Beta Secretase enzyme (BACE) (P56817 46-501, species assumed): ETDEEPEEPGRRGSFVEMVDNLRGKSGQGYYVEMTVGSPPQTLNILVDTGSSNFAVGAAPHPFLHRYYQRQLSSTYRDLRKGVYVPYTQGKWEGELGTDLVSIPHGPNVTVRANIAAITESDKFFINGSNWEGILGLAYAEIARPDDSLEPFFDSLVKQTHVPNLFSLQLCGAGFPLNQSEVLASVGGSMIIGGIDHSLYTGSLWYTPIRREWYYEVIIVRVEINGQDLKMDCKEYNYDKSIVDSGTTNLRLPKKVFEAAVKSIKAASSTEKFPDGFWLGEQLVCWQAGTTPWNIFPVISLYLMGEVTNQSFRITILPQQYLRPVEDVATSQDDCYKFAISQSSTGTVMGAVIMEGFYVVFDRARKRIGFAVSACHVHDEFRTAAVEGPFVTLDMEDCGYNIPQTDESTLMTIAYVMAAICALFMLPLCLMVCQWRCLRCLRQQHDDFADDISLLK

Compound | IC50 [1] | IC50 [2, 3] | IC50 [2, 4] | IC50 ([2]; average IC50, HEK cells)
NC1=N[C@]2(CS1)c1cc(-c3cncnc3)c(F)cc1Oc1c(F)cc(N3CCOCC3)cc12 [Example 887, (4R)-3′,5′-difluoro-7′-(4-morpholinyl)-2′-(5-pyrimidinyl)spiro[1,3-thiazole-4,9′-xanthen]-2-amine] | 4740 nM | ≥ 10000 nM |  | 
CC1(C#Cc2cc3c(cn2)Oc2ccc(-c4cccnc4F)cc2[C@@]32CSC(N)=N2)COC1 [Example 995, (5S)-7-(2-fluoro-3-pyridinyl)-3-((3-methyl-3-oxetanyl)ethynyl)spiro[chromeno[2,3-c]pyridine-5,4′-[1,3]thiazol]-2′-amine] | 0.8 nM |  | 15 nM | 
NC1=N[C@@]2(CO1)c1cc(-c3c(F)ccnc3F)ccc1Oc1c(F)cc(-c3ncccn3)cc12 [Example 858, (4S)-7′-(2,4-difluoro-3-pyridinyl)-4′-fluoro-2′-(2-pyrimidinyl)spiro[1,3-oxazole-4,9′-xanthen]-2-amine] | 0.5 nM | 18 nM |  | 
NC1=N[C@@]2(CO1)c1cc(-c3cccnc3F)ncc1Oc1c(F)cc(C3=CCOCC3)cc12 [Example 306, (5S)-7-(3,6-dihydro-2H-pyran-4-yl)-9-fluoro-3-(2-fluoro-3-pyridinyl)spiro[chromeno[2,3-c]pyridine-5,4′-[1,3]oxazol]-2′-amine] | 1.5 nM |  | 56.7 nM | 
NC1=N[C@@]2(CO1)c1cc(-c3cccnc3F)ccc1Oc1c2cc(Br)nc1F [Example 734, (5S)-3-bromo-1-fluoro-7-(2-fluoro-3-pyridinyl)spiro[chromeno[2,3-c]pyridine-5,4′-[1,3]oxazol]-2′-amine] | 7.8 nM |  | 2260 nM | 
Cc1cc(-c2cc(F)c3c(c2)[C@]2(COC(N)=N2)c2cc(OCC4(C)COC4)ccc2O3)ccn1 [Example 439, (4S)-4′-fluoro-7′-((3-methyl-3-oxetanyl)methoxy)-2′-(2-methyl-4-pyridinyl)spiro[1,3-oxazole-4,9′-xanthen]-2-amine] | 186 nM | 156 nM |  | 
NC1=N[C@@]2(CO1)c1cc(-c3cccnc3F)ccc1Oc1c(F)cc(-c3ccc(F)nc3)cc12 [Example 640, (4S)-4′-fluoro-7′-(2-fluoro-3-pyridinyl)-2′-(6-fluoro-3-pyridinyl)spiro[1,3-oxazole-4,9′-xanthen]-2-amine] | 1.2 nM | 23 nM |  | 
NC1=N[C@@]2(CS1)c1cc(-c3cccnc3F)ccc1Oc1cnc(N3CCC(F)(F)CC3)cc12 [Example 933, (5S)-3-(4,4-difluoro-1-piperidinyl)-7-(2-fluoro-3-pyridinyl)spiro[chromeno[2,3-c]pyridine-5,4′-[1,3]thiazol]-2′-amine] | 0.5 nM | 33 nM |  | 
Cc1ccc(-c2cnc3c(c2)[C@]2(CSC(N)=N2)c2cc(-c4cccnc4F)ccc2O3)cn1 [Example 582, (5S)-7-(2-fluoro-3-pyridinyl)-3-(6-methyl-3-pyridinyl)spiro[chromeno[2,3-b]pyridine-5,4′-[1,3]thiazol]-2′-amine] | 2 nM | 5 nM |  | 
CC1(C)C[C@@H](c2cc3c(cn2)Oc2ccc(-c4ccc(F)nc4)cc2[C@@]32COC(N)=N2)CCO1 [Example 379, (5S)-3-((4S)-2,2-dimethyltetrahydro-2H-pyran-4-yl)-7-(6-fluoro-3-pyridinyl)spiro[chromeno[2,3-c]pyridine-5,4′-[1,3]oxazol]-2′-amine] | 23.2 nM |  | 176 nM | 
NC1=N[C@@]2(CS1)c1cc(-c3cccnc3F)ccc1Oc1c(F)cc(-c3ccnc(F)c3)cc12 [Example 1071, (4S)-4′-fluoro-7′-(2-fluoro-3-pyridinyl)-2′-(2-fluoro-4-pyridinyl)spiro[1,3-thiazole-4,9′-xanthen]-2-amine] | 0.3 nM |  | 44 nM | 
CC1(C#Cc2cnc3c(c2)[C@]2(CSC(N)=N2)c2cc(-c4cccc(C#N)c4F)ccc2O3)COC1 [Example 780, 3-((5S)-2′-amino-3-((3-methyl-3-oxetanyl)ethynyl)spiro[chromeno[2,3-b]pyridine-5,4′-[1,3]thiazol]-7-yl)-2-fluorobenzonitrile] | 2 nM |  | 338 nM | 
Cc1ccnn1-c1cc(F)c2c(c1)[C@]1(COC(N)=N1)c1cc(-c3cncnc3)ccc1O2 [Example 636, (4S)-4′-fluoro-2′-(5-methyl-1H-pyrazol-1-yl)-7′-(5-pyrimidinyl)spiro[1,3-oxazole-4,9′-xanthen]-2-amine] | 28.8 nM | 273 nM |  | 
COc1ccc2c(c1)[C@@]1(COC(N)=N1)c1cc(SCc3ccccc3)cnc1O2 [Example 185, (5S)-3-(benzylsulfanyl)-7-methoxyspiro[chromeno[2,3-b]pyridine-5,4′-[1,3]oxazol]-2′-amine] | 5060 nM |  | 10000 nM | 
CC1(C)C[C@@H](c2cnc3c(c2)[C@]2(COC(N)=N2)c2cc(-c4cccc(Cl)c4)ccc2O3)CCO1 [Example 474, (5S)-7-(3-chlorophenyl)-3-((4S)-2,2-dimethyltetrahydro-2H-pyran-4-yl)spiro[chromeno[2,3-b]pyridine-5,4′-[1,3]oxazol]-2′-amine] | 0.9 nM |  |  | 9.4 nM
CC(C)(C)/C=C/c1ccc2c(c1)[C@]1(COC(N)=N1)c1cc(Cl)ncc1O2 [Example 383, (5R)-3-chloro-7-((1E)-3,3-dimethyl-1-buten-1-yl)spiro[chromeno[2,3-c]pyridine-5,4′-[1,3]oxazol]-2′-amine] | 622 nM | 2560 nM |  | 
NC1=N[C@@]2(CO1)c1cc(-c3cccnc3F)ccc1Oc1c(F)cc(-c3cnccn3)cc12 [Example 205, (4S)-4′-fluoro-7′-(2-fluoro-3-pyridinyl)-2′-(2-pyrazinyl)spiro[1,3-oxazole-4,9′-xanthen]-2-amine] | 1.6 nM |  | 10.1 nM | 
NC1=N[C@@]2(CO1)c1cc(-c3cncc(F)c3)ccc1Oc1c(F)cc(C3=CCOCC3)cc12 [Example 447, (4S)-2′-(3,6-dihydro-2H-pyran-4-yl)-4′-fluoro-7′-(5-fluoro-3-pyridinyl)spiro[1,3-oxazole-4,9′-xanthen]-2-amine] | 1.1 nM | 5.1 nM |  | 
Cc1ccc(-c2cnc3c(c2)[C@]2(CSC(N)=N2)c2cc(-c4cnccc4F)ccc2O3)cn1 [Example 766, (5S)-7-(4-fluoro-3-pyridinyl)-3-(6-methyl-3-pyridinyl)spiro[chromeno[2,3-b]pyridine-5,4′-[1,3]thiazol]-2′-amine] | 1.2 nM |  | 10 nM | 
NC1=N[C@@]2(CO1)c1cc(-c3c(F)ccnc3F)ccc1Oc1cnc([C@@H]3CCCOC3)cc12 [Example 912, (5S)-7-(2,4-difluoro-3-pyridinyl)-3-((3S)-tetrahydro-2H-pyran-3-yl)spiro[chromeno[2,3-c]pyridine-5,4′-[1,3]oxazol]-2′-amine] | 25.1 nM | 338 nM |  | 
N#Cc1cncc(-c2ccc3c(c2)[C@@]2(COC(N)=N2)c2cc(N4CCOCC4)cc(F)c2O3)c1 [Example 558, 5-((4S)-2-amino-5′-fluoro-7′-(4-morpholinyl)spiro[1,3-oxazole-4,9′-xanthen]-2′-yl)-3-pyridinecarbonitrile] | 1.7 nM | 5.7 nM |  | 
NC1=N[C@@]2(CS1)c1cc(-c3cccnc3F)ccc1Oc1c(F)cc(-c3ccncc3)cc12 [Example 1068, (4S)-4′-fluoro-7′-(2-fluoro-3-pyridinyl)-2′-(4-pyridinyl)spiro[1,3-thiazole-4,9′-xanthen]-2-amine] | 2.3 nM |  | 62 nM | 
NC1=N[C@@]2(CO1)c1cc(-c3cccnc3F)ccc1Oc1c2cc(N2CC[C@@H](F)C2)nc1F [Example 673, (5S)-1-fluoro-7-(2-fluoro-3-pyridinyl)-3-((3R)-3-fluoro-1-pyrrolidinyl)spiro[chromeno[2,3-c]pyridine-5,4′-[1,3]oxazol]-2′-amine] | 0.3 nM | 3 nM |  | 
NC1=N[C@@]2(CO1)c1cc(-c3cccnc3F)ccc1Oc1c(F)cc(N3CC4(COC4)C3)cc12 [Example 1087, (4S)-4′-fluoro-7′-(2-fluoro-3-pyridinyl)-2′-(2-oxa-6-azaspiro[3.3]hept-6-yl)spiro[1,3-oxazole-4,9′-xanthen]-2-amine] | 2 nM |  | 2 nM | 
NC1=N[C@@]2(CS1)c1cc(-c3cccnc3F)ccc1Oc1cnc([C@H]3CCCOC3)cc12 [Example 932, (5S)-7-(2-fluoro-3-pyridinyl)-3-((3R)-tetrahydro-2H-pyran-3-yl)spiro[chromeno[2,3-c]pyridine-5,4′-[1,3]thiazol]-2′-amine] | 16.2 nM | 208 nM |  | 
NC1=N[C@@]2(CO1)c1cc(-c3cncc(F)c3)ccc1Oc1c2cc(N2CC[C@H](F)C2)nc1F [Example 926, (5S)-1-fluoro-7-(5-fluoro-3-pyridinyl)-3-((3S)-3-fluoro-1-pyrrolidinyl)spiro[chromeno[2,3-c]pyridine-5,4′-[1,3]oxazol]-2′-amine] | 0.3 nM | 8 nM |  | 
Cc1cnc(F)c(-c2ccc3c(c2)[C@@]2(COC(N)=N2)c2cc(C4=CCOCC4)ccc2O3)c1 [Example 191, (4R)-2′-(3,6-dihydro-2H-pyran-4-yl)-7′-(2-fluoro-5-methyl-3-pyridinyl)spiro[1,3-oxazole-4,9′-xanthen]-2-amine] | 5.6 nM |  | 35.6 nM | 
NC1=NC2(CO1)c1cc(-c3cccnc3F)ccc1Oc1c2cc(C#Cc2cccnc2)nc1F (stereo not shown) [Example 735, 1-fluoro-7-(2-fluoro-3-pyridinyl)-3-(3-pyridinylethynyl)spiro[chromeno[2,3-c]pyridine-5,4′-[1,3]oxazol]-2′-amine] | 0.9 nM |  | 131 nM | 
CC1(C)CCN(c2cnc3c(c2)[C@]2(COC(N)=N2)c2cc(-c4cccnc4F)ccc2O3)CC1 [Example 480, (5S)-3-(4,4-dimethyl-1-piperidinyl)-7-(2-fluoro-3-pyridinyl)spiro[chromeno[2,3-b]pyridine-5,4′-[1,3]oxazol]-2′-amine] | 2.5 nM | 9.4 nM |  | 
